The results in this text go back to publication PMC9820430, “New Affordable Methods for Large-Scale Isolation of Major Olive Secoiridoids and Systematic Comparative Study of Their Antiproliferative/Cytotoxic Effect on Multiple Cancer Cell Lines of Different Cancer Origins” (International Journal of Molecular Sciences, 2022).

For one data set, the system named is MCF-7. The data set is described as follows: ATP-based luminescence cell viability assay (ViaLight), 72 h. Further details: species or system human. The settings on record: Homo sapiens, MCF7, 72 h, 72 h treatment, read-out: EC50 Values of Olive Oil Polyphenols. As to the method: (§1) The antiproliferative/cytotoxic effects of the selected OOPs on each cell line were assessed by measuring the cellular ATP levels after 72 h treatments using an ATP-based luminescence assay. This assay, initially developed as a tumor chemosensitivity assay, has shown considerable promise as a general in vitro toxicity assay due to its high sensitivity that allows the detection of a small number of cells. Consequently, it can be applied to both cancer cell lines and primary tissue cells. […] The EC50 values were calculated by nonlinear regression (curve fit) using a sigmoidal dose–response equation (Figure 2A and Figure S2).
(§2) The OOPs tested in this study were first dissolved in an appropriate DMSO volume such as to prepare a final stock solution of 50 mM, which was further used to prepare various compound concentrations in DMSO-based solutions. The final DMSO concentration in the cell culture was maintained constant in all treated groups of any given experiment and never exceeded the value of 0.2% (v/v). For the treatment experiments, cells were plated in 96-well culture plates, in 100 μL of complete medium at a seeding density of 5000–10,000 cells/well—depending on cells’ size and doubling time—and were allowed to adhere overnight (~16 h). The next day, 150 μL of complete medium was added to each well and the cells were treated with various concentrations of OOPs. Each concentration was tested in triplicate and was repeated 2–3 times. To prepare the final concentration solutions, 0.5 μL of a 500× stock of each tested compound in DMSO was added directly into each well in a final volume of 250 μL culture medium and was gently mixed by pipetting. Control wells were prepared under the same experimental conditions by adding only DMSO at a final concentration of 0.2% (v/v). Compounds were not renewed during the entire period of cell exposure. All cells were cultured at 37 °C in a 5% (v/v) CO2 for 24, 48 or 72 h.
(§3) Briefly, after the treatment with OOPs, the adapted medium was removed from the dish wells and the cells were washed twice with medium without FBS. Then, the C-lysis (LT27-076) was diluted in PBS (1:2) and a volume of 50 μL was added to each well. Cells were incubated with C-lysis for at least 10 min. Finally, an equal volume of lysed cells from each well and ATP monitoring reagent (AMR; LT27-212) was transferred to the wells of a white-walled illuminometer plate (Greiner bio-one; 655074). Cell viability was quantified by measuring luminescence using a multi-mode microplate reader Safire^2 Tecan (software Magellan V6.00 STD.2PC WIN.20000/XP).

The next data set concerns MDA-MB 231. The data set is described as above. The conditions noted are these: Homo sapiens, MDA-MB-231, 72 h, MDA-MB 231; 72 h treatment; read-out: EC50 Values of Olive Oil Polyphenols. Further details: species or system human. The procedure: as §1, §2, §3
The next data set deals with SK-BR-3. The data set is described as above. The conditions noted are these: Homo sapiens, SK-BR-3, 72 h, SK-BR-3; 72 h treatment; read-out: EC50 Values of Olive Oil Polyphenols. Further details: species or system human. The procedure:
as §1, §2, §3

The test system of data set [1] is sixteen human cancer cell lines originating from eight different tissues. The data set is described as follows: ATP-based luminescence cell viability assay, whole panel. As to the method: as §1, §2, §3
Data set [2] has as its system three breast cancer cell lines (MDA-MB-231, SK-BR-3 and MCF-7). The data set is described as follows: ATP-based luminescence cell viability assay, breast panel. More on the design: species or system human. As to the method:
as §1
The calculated EC50 values ranged between 9.1–100 μΜ (Table 1). The bioactivity of the oleocanthalic acid (7), studied here for the first time for its antiproliferative/cytotoxic activity, was initially evaluated systematically in the three breast cancer cell lines using a concentration range of 10–100 μM. In all cases, the viability measured was ≥80%, predicting EC50 values > 100 μΜ. […] For this reason, oleocanthalic acid (7) was excluded from the rest of this study.
as §2
Briefly, after the treatment with OOPs, the adapted medium was removed from the dish wells and the cells were washed twice with medium without FBS. Then, the C-lysis (LT27-076) was diluted in PBS (1:2) and a volume of 50 μL was added to each well. […] Cell viability was quantified by measuring luminescence using a multi-mode microplate reader Safire^2 Tecan (software Magellan V6.00 STD.2PC WIN.20000/XP).

Each structure is given as a SMILES string.

The EC50 is the midpoint of the concentration-response curve. `C/C=C(/C=O)[C@@H](CC(=O)O)CC(=O)OCCc1ccc(O)cc1` [compound 7, oleocanthalic acid]: the EC50 in the data set on MCF-7 was > 100 µM; with MDA-MB 231 it was > 100 µM; in the data set on SK-BR-3 it was > 100 µM; in data set [1] (Homo sapiens, 72 h treatment, range across cancer cell lines, read-out: EC50, range over the cancer cell lines), > 100 µM; in data set [2] (Homo sapiens, MDA-MB-231, SK-BR-3 and MCF-7, 72 h) it was > 100 µM. For the same compound, in data set [1] (Figure 3, sixteen cancer cell lines), the “Bioactivity range on cancer cell lines (grade in words)” value is listed as “Low activity”. Further, the viability measured in data set [2] (three breast cancer cell lines, concentration range of 10–100 μM) is ≥ 80%.
